Reference: patent US6515015B1, “Antidiabetic agents based on aryl and heteroarylacetic acids” (Merck & Co. Inc., priority 1996, dated 2003)

Biological target: T1, Human PPARγ2 (Homo sapiens, UniProt P37231)
T1 construct: The full length human cDNA for PPARγ2 and PPARδ were subcloned into the PGEX-2T and PGEX-KT; made in house; host or cells: E. coli (pGEX-2T vector)
T1 sequence (P37231 1-505): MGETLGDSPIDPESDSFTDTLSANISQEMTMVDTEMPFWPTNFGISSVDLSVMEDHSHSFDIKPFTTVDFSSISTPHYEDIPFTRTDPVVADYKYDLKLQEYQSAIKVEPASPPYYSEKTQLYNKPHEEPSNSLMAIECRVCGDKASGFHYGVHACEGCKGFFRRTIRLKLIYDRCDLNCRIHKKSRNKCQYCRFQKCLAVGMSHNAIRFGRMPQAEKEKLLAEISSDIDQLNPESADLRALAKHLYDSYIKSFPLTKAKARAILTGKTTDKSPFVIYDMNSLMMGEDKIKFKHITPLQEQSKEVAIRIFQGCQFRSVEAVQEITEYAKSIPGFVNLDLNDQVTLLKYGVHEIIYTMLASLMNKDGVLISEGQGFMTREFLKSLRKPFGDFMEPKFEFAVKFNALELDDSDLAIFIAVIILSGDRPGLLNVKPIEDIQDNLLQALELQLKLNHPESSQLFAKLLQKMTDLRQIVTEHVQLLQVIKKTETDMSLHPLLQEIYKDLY
Assay: [3H]AD-5075 displacement assay for PPARγ2
Type: binding
Conditions: gst-fusion human PPARγ2, charcoal separation, ~16 h at 4° C.
Excerpt: Compounds of the instant invention which are useful for the above discussed treatments can be identified and/or characterized by employing the PPAR δ, and γ binding assays. The assays are useful in predicting or quantitating in vivo effects having to do with the control or modulation of glucose, free fatty acid, triglyceride, insulin or cholesterol. To evaluate IC50 or EC50, values the compounds were titrated in the appropriate assay using different concentrations of the compound to be tested. To obtain the appropriate values (%Inhibition-IC50, or %Activation-EC50), the data resulting from the assays were then analyzed by determining the best fit of a 4 parameter function to the data using the Levenberg-Marquardt non-linear fitting algorithm in Kaleidagraph (Synergy Software, Reading, Pa.). The human nuclear receptor cDNA for PPARδ (hPPARδ) has been cloned from a human osteosarcoma cell cDNA library and is fully described in A. Schmidt et al., Molecular Endocrinology, 6:1634-1641 (1992), herein incorporated by reference in its entirety. See A. Elbrecht et al., Biochem. and Biophy. Res. Comm. 224:431-437 (1996) and T. Sher et al., Biochem. 32:5598-5604 (1993) for a description of the human nuclear receptor gene PPARγ and α.
Human PPARγ2 and PPARδ, independently, were prepared as gst-fusion proteins in E. coli. […]

Kd: ~1 nM
SMILES: Cc1oc(-c2ccccc2)nc1C(O)COc1ccc(CC2SC(=O)NC2=O)cc1 (stereo not shown) [AD-5075]
